Reference: patent US12441703B2, “Carboxamides as modulators of sodium channels” (VERTEX PHARMACEUTICALS INCORPORATED, priority 2019, dated 2025)
pIC50: −log10 of the molar value.

Biological target: human NaV 1.8 (Homo sapiens, UniProt Q9Y5Y9)
Assay: E-VIPR assay for detecting and measuring NaV inhibition properties
Assay type: cell-based
Details: E-VIPR assay conducted in the presence of human serum; HEK cells expressing truncated human NaV 1.8
Outline: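 Membrane-potential (coumarin/oxonol) readout after 10 s of 10 Hz biphasic electrical stimulation on E-VIPR. Compounds: 11-point 3-fold dilutions, […], 0.625% DMSO, 30 min at room temperature, human serum optional. Cells: HEK expressing truncated human NaV1.8 co-transduced with KIR2.1.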

Chain of human NaV 1.8 (Q9Y5Y9 whole entry, looked up): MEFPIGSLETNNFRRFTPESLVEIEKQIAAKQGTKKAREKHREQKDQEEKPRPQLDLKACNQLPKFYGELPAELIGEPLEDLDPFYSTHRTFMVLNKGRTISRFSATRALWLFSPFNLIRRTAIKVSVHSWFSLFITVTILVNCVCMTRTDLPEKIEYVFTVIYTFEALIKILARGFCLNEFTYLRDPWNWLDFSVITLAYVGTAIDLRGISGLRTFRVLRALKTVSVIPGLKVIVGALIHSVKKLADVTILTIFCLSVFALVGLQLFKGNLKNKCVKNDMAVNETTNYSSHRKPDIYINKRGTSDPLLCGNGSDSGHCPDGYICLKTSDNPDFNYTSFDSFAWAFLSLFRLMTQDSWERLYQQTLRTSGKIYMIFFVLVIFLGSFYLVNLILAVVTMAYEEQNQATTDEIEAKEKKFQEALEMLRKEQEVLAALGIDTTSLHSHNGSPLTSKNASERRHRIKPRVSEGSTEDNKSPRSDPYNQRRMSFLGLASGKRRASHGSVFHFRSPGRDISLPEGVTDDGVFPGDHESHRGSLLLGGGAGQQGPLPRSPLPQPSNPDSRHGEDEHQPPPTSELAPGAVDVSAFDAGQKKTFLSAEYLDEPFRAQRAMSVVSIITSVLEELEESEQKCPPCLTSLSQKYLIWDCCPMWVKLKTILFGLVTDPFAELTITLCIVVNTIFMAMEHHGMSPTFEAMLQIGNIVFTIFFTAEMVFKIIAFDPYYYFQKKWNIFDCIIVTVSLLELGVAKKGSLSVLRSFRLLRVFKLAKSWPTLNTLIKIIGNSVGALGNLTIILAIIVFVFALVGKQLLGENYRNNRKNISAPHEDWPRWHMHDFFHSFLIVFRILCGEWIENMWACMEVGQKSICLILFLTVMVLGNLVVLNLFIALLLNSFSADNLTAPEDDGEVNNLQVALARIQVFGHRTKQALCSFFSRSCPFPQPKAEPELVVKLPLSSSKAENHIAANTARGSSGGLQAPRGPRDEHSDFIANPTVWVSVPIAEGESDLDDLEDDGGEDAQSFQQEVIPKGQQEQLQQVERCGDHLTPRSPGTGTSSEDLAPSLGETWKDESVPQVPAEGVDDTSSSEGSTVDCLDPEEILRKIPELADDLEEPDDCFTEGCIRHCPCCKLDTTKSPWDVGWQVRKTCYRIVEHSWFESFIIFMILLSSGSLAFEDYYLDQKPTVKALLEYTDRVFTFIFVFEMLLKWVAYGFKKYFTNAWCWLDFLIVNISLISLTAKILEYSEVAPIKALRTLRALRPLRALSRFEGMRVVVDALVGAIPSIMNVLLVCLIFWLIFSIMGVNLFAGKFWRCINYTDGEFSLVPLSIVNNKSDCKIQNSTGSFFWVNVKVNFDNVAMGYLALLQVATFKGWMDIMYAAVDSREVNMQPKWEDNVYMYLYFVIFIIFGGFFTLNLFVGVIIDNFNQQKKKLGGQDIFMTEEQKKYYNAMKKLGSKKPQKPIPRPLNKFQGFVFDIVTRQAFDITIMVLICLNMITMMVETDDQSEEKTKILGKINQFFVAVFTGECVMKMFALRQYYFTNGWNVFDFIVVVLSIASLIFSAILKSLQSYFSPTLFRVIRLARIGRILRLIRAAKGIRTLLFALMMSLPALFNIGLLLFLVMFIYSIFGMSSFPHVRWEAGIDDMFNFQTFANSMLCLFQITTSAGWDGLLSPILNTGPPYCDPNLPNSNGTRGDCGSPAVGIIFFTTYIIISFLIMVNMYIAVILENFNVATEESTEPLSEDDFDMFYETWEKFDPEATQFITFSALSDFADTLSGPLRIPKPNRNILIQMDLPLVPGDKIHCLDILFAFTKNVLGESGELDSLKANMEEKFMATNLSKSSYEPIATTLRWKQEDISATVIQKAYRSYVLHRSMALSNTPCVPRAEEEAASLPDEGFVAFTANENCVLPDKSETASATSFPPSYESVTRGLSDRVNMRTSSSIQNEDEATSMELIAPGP

Row | Compound | pIC50
1 | Cc1c(Oc2ccc(C(F)(F)F)c(C)c2C(=O)Nc2ccc(C(N)=O)nc2)ccc(OC(F)(F)F)c1F [Compound 289, 5-[[6-[3-Fluoro-2-Methyl-4-(Trifluoromethoxy)Phenoxy]-2-Methyl-3-(Trifluoromethyl)Benzoyl]Amino]Pyridine-2-Carboxamide] | 7.41

Same assay, conditions: E-VIPR assay conducted in the presence of human serum; HEK cells expressing truncated human NaV 1.8; read-out: IC50

Row | Compound | pIC50
2 | COc1cc(OC(F)(F)F)ccc1Oc1cc(OC)c(Cl)c(F)c1C(=O)Nc1ccnc(C(N)=O)c1 [Compound 266, 4-[[3-chloro-2-fluoro-4-methoxy-6-[2-methoxy-4-(trifluoromethoxy)phenoxy]benzoyl]amino]pyridine-2-carboxamide] | 8.55
3 | COc1cc(OC(F)(F)F)ccc1Oc1cc(Cl)cc(F)c1C(=O)Nc1cc(C(N)=O)[n+]([O-])cc1C [Compound 267, 4-[[4-chloro-2-fluoro-6-[2-methoxy-4-(trifluoromethoxy)phenoxy]benzoyl]amino]-5-methyl-1-oxido-pyridin-1-ium-2-carboxamide] | 7.08
4 | COc1cc(OC(F)(F)F)ccc1Oc1ccc(Cl)c(F)c1C(=O)Nc1cc(C(N)=O)[n+]([O-])cc1C [Compound 268, 4-[[3-chloro-2-fluoro-6-[2-methoxy-4-(trifluoromethoxy)phenoxy]benzoyl]amino]-5-methyl-1-oxido-pyridin-1-ium-2-carboxamide] | 7.55
5 | COc1cc(OC(F)(F)F)ccc1Oc1ccc(C(F)(F)F)c(C#N)c1C(=O)Nc1ccnc(C(N)=O)c1 [Compound 269, 4-[[2-cyano-6-[2-methoxy-4-(trifluoromethoxy)phenoxy]-3-(trifluoromethyl)benzoyl]amino]pyridine-2-carboxamide] | 7.43
6 | COc1cc(OC(F)(F)F)ccc1Oc1cnc(C(F)(F)F)c(C)c1C(=O)Nc1cnc(C(N)=O)nc1 [Compound 270, 5-[[5-[2-methoxy-4-(trifluoromethoxy)phenoxy]-3-methyl-2-(trifluoromethyl)pyridine-4-carbonyl]amino]pyrimidine-2-carboxamide] | 7.48
7 | COc1cc(OC(F)(F)F)ccc1Oc1cnc(C(F)(F)F)c(C)c1C(=O)Nc1cc(C(N)=O)ncc1C [Compound 271, N-(2-carbamoyl-5-methyl-4-pyridyl)-5-[2-methoxy-4-(trifluoromethoxy)phenoxy]-3-methyl-2-(trifluoromethyl)pyridine-4-carboxamide] | 7.62
8 | COc1cc(OC(F)(F)F)ccc1Oc1cc(C(F)(F)F)nc(OC)c1C(=O)Nc1cc(C(N)=O)ncc1C [Compound 272, N-(2-carbamoyl-5-methyl-4-pyridyl)-2-methoxy-4-[2-methoxy-4-(trifluoromethoxy)phenoxy]-6-(trifluoromethyl)pyridine-3-carboxamide] | 7.05
9 | CNC(=O)c1cc(NC(=O)c2c(Oc3ccc(OC(F)(F)F)cc3OC)cnc(C(F)(F)F)c2OC)ccn1 [Compound 273, 3-methoxy-5-[2-methoxy-4-(trifluoromethoxy)phenoxy]-N-[2-(methylcarbamoyl)-4-pyridyl]-2-(trifluoromethyl)pyridine-4-carboxamide] | 7.23
10 | CCc1nc(C(=O)Nc2ccnc(C(N)=O)c2)c(Oc2ccc(OC(F)(F)F)cc2OC)cc1C(F)(F)F [Compound 274, N-(2-carbamoyl-4-pyridyl)-6-ethyl-3-[2-methoxy-4-(trifluoromethoxy)phenoxy]-5-(trifluoromethyl)pyridine-2-carboxamide] | 7.41
11 | COc1cc(OC(F)(F)F)ccc1Oc1cc(C(F)(F)F)c(OC)nc1C(=O)Nc1ccnc(C(N)=O)c1 [Compound 275, N-(2-Carbamoyl-4-Pyridyl)-6-Methoxy-3-[2-Methoxy-4-(Trifluoromethoxy)Phenoxy]-5-(Trifluoromethyl)Pyridine-2-Carboxamide] | 6.77
12 | COc1cc(OC(F)(F)F)ccc1Oc1cc(C(F)(F)F)c(OC)cc1C(=O)Nc1ccnc(C(N)=O)c1 [Compound 276, 4-[[5-Methoxy-2-[2-Methoxy-4-(Trifluoromethoxy)Phenoxy]-4-(Trifluoromethyl)Benzoyl]Amino]Pyridine-2-Carboxamide] | 6.36
13 | COc1cc(OC(F)(F)F)ccc1Oc1cc(C(F)(F)F)cc(OC)c1C(=O)Nc1ccnc(C(N)=O)c1 [Compound 277, 4-[[2-Methoxy-6-[2-Methoxy-4-(Trifluoromethoxy)Phenoxy]-4-(Trifluoromethyl)Benzoyl]Amino]Pyridine-2-Carboxamide] | 6.77
14 | COc1cc(OC(F)(F)F)ccc1Oc1cc(C(F)(F)F)c(C)c(F)c1C(=O)Nc1ccnc(C(N)=O)c1 [Compound 278, 4-[[2-Fluoro-6-[2-Methoxy-4-(Trifluoromethoxy)Phenoxy]-3-Methyl-4-(Trifluoromethyl)Benzoyl]Amino]Pyridine-2-Carboxamide] | 8.44
15 | COc1cc(OC(F)(F)F)ccc1Oc1cc(C(F)(F)F)c(F)cc1C(=O)Nc1cc[n+]([O-])c(C(N)=O)c1 [Compound 279, 4-[[5-Fluoro-2-[2-Methoxy-4-(Trifluoromethoxy)Phenoxy]-4-(Trifluoromethyl)Benzoyl]Amino]-1-Oxido-Pyridin-1-Ium-2-Carboxamide] | 7.72
16 | COc1cc(OC(F)(F)F)ccc1Oc1ccc(OC(F)(F)F)c(F)c1C(=O)Nc1ccnc(C(N)=O)c1 [Compound 280, 4-[[2-Fluoro-6-[2-Methoxy-4-(Trifluoromethoxy)Phenoxy]-3-(Trifluoromethoxy)Benzoyl]Amino]Pyridine-2-Carboxamide] | 8.40
17 | COc1cc(OC(F)(F)F)ccc1Oc1ccc(C(F)(F)F)c(C2CC2)c1C(=O)Nc1ccnc(C(N)=O)c1 [Compound 281, 4-[[2-Cyclopropyl-6-[2-Methoxy-4-(Trifluoromethoxy)Phenoxy]-3-(Trifluoromethyl)Benzoyl]Amino]Pyridine-2-Carboxamide] | 6.89
18 | COc1cc(OC(F)(F)F)ccc1Oc1cc(C2CC2)c(C(F)(F)F)nc1C(=O)Nc1ccnc(C(N)=O)c1 [Compound 282, N-(2-Carbamoyl-4-Pyridyl)-5-Cyclopropyl-3-[2-Methoxy-4-(Trifluoromethoxy)Phenoxy]-6-(Trifluoromethyl)Pyridine-2-Carboxamide] | 7.24
19 | COc1cc(OC(F)(F)F)ccc1Oc1cc(OC)c(C(F)(F)F)c(C)c1C(=O)Nc1ccnc(C(N)=O)c1 [Compound 283, 4-[[4-Methoxy-6-[2-Methoxy-4-(Trifluoromethoxy)Phenoxy]-2-Methyl-3-(Trifluoromethyl)Benzoyl]Amino]Pyridine-2-Carboxamide] | 8.38
20 | COc1cc(OC(F)(F)F)ccc1Oc1cc(C(F)(F)F)c(OC)c(F)c1C(=O)Nc1ccnc(C(N)=O)c1 [Compound 284, 4-[[2-Fluoro-3-Methoxy-6-[2-Methoxy-4-(Trifluoromethoxy)Phenoxy]-4-(Trifluoromethyl)Benzoyl]Amino]Pyridine-2-Carboxamide] | 8.40
21 | Cc1cnc(C(N)=O)cc1NC(=O)c1c(Oc2ccc(OC(F)(F)F)cc2C)ccc(C(F)(F)F)c1F [Compound 285, 4-[[2-Fluoro-6-[2-Methyl-4-(Trifluoromethoxy)Phenoxy]-3-(Trifluoromethyl)Benzoyl]Amino]-5-Methyl-Pyridine-2-Carboxamide] | 7.59
22 | Cc1cc(OC(F)(F)F)ccc1Oc1ccc(Cl)c(F)c1C(=O)Nc1ccnc(C(N)=O)c1 [Compound 286, 4-[[3-Chloro-2-Fluoro-6-[2-Methyl-4-(Trifluoromethoxy)Phenoxy]Benzoyl]Amino]Pyridine-2-Carboxamide] | 7.85
23 | Cc1c(C2CC2)ccc(Oc2ccc(OC(F)(F)F)cc2Cl)c1C(=O)Nc1ccc(C(N)=O)nc1 [Compound 287, 5-[[6-[2-Chloro-4-(Trifluoromethoxy)Phenoxy]-3-Cyclopropyl-2-Methyl-Benzoyl]Amino]Pyridine-2-Carboxamide] | 6.23
24 | Cc1cnc(C(N)=O)cc1NC(=O)c1c(Oc2ccc(OC(F)(F)F)c(F)c2C)ccc(C(F)(F)F)c1C [Compound 288, 4-[[6-[3-Fluoro-2-Methyl-4-(Trifluoromethoxy)Phenoxy]-2-Methyl-3-(Trifluoromethyl)Benzoyl]Amino]-5-Methyl-Pyridine-2-Carboxamide] | 7.69
25 | Cc1c(Oc2ccc(C(F)(F)F)c(C)c2C(=O)Nc2ccnc(C(N)=O)c2)ccc(OC(F)(F)F)c1F [Compound 290, 4-[[6-[3-Fluoro-2-Methyl-4-(Trifluoromethoxy)Phenoxy]-2-Methyl-3-(Trifluoromethyl)Benzoyl]Amino]Pyridine-2-Carboxamide] | 8.00
26 | Cc1cnc(C(N)=O)cc1NC(=O)c1c(Oc2ccc(OC(F)(F)F)c(F)c2C)ccc(C(F)(F)F)c1F [Compound 291, 4-[[2-Fluoro-6-[3-Fluoro-2-Methyl-4-(Trifluoromethoxy)Phenoxy]-3-(Trifluoromethyl)Benzoyl]Amino]-5-Methyl-Pyridine-2-Carboxamide] | 7.89
27 | Cc1c(Oc2ccc(C(F)(F)F)c(F)c2C(=O)Nc2ccc(C(N)=O)nc2)ccc(OC(F)(F)F)c1F [Compound 292, 5-[[2-Fluoro-6-[3-Fluoro-2-Methyl-4-(Trifluoromethoxy)Phenoxy]-3-(Trifluoromethyl)Benzoyl]Amino]Pyridine-2-Carboxamide] | 7.26
28 | Cc1c(Oc2ccc(C(F)(F)F)c(F)c2C(=O)Nc2ccnc(C(N)=O)c2)ccc(OC(F)(F)F)c1F [Compound 293, 4-[[2-Fluoro-6-[3-Fluoro-2-Methyl-4-(Trifluoromethoxy)Phenoxy]-3-(Trifluoromethyl)Benzoyl]Amino]Pyridine-2-Carboxamide] | 8.41
29 | Cc1c(Oc2ccc(OC(F)(F)F)c(F)c2C(=O)Nc2ccnc(C(N)=O)c2)ccc(OC(F)(F)F)c1F [Compound 294, 4-[[2-Fluoro-6-[3-Fluoro-2-Methyl-4-(Trifluoromethoxy)Phenoxy]-3-(Trifluoromethoxy)Benzoyl]Amino]Pyridine-2-Carboxamide] | 8.17
30 | Cc1c(Oc2ccc(Cl)c(F)c2C(=O)Nc2ccnc(C(N)=O)c2)ccc(OC(F)(F)F)c1F [Compound 295, 4-[[3-Chloro-2-Fluoro-6-[3-Fluoro-2-Methyl-4-(Trifluoromethoxy)Phenoxy]Benzoyl]Amino]Pyridine-2-Carboxamide] | 8.19
